Data: patent publication US8192962B2, “Processes for detecting toxic substances” (Daikin Industries, Ltd., priority 2001, dated 2012)

System: Stress protein genes
Assay: DNA chip mRNA expression in yeast, stress protein genes (Table 6)
Assay type: cell-based, Saccharomyces cerevisiae S288C
Procedure: Yeast (Saccharomyces cerevisiae S288C (α SUC2mal mel gap2 CUP1)) were incubated at 25° C. on YPD medium (yeast extract 1%, polypepton 2%, glucose 2%). One of toxic chemical substances was added to the cells at logarithmic growth phase, and the cells were further incubated for two hours. Cells were cultured without any chemical substance in the same condition, and were used as control. Concentrations of the chemical substances were defined to inhibit the growth of the yeast but not lead to death.
After completion of the incubation, the culture was centrifuged to collect the cells. To the cells, sodium acetate buffer (50 mM sodium acetate, 10 mM EDTA, 1% SDS) was added, and the mixture was shaken at 65° C. for five minutes, followed by returning to room temperature, and obtaining the supernatant, of which the procedures were repeated two times. To the supernatant, ½ amount of a solution of phenol/chloroform was added, and the mixture was centrifuged to give a supernatant, which was added with an equal amount of chloroform, and the mixture was centrifuged to give a supernatant. To the supernatant, an equal amount of isopropanol containing 0.3 M sodium acetate was added, and the mixture was allowed to stand at room temperature for 30 minutes, after which the mixture was centrifuged to give a sediment of the whole RNAs. Seventy % ethanol was added to the sediment, and the mixture was again centrifuged to give a sediment, which was then dried and dissolved in water. mRNA was isolated from the whole RNAs as followings. In view of the fact that a poly A chain is attached to the 3′ terminus of mRNA, a polynucleotide having a poly T structure which was immobilized on the surface of latex beads was used to trap the mRNA, and then the mRNA was washed and eluted with spine column (Oligotex-dT30<Super>mRNA Purification Kit, Takara). Reverse transcription of the mRNA was conducted with a reverse transcriptase (Super Script II Reverse Transcriptase; catalogue No. 18064-014, GibcoBRL) using fluorescence-labeled nucleotides to give cDNAs that were introduced with Cy3-dUTP or Cy5-dUTP during the reverse transcription.
The labeled cDNAs were dissolved in TE buffer (10mM Tris-HCl/1 mM EDTA, pH8.0), and the solution was dropped on the DNA chip containing the whole genes of yeast (DNA Chip Research Inc. Japan) so that the cDNAs were hybridized on the DNA chip at 65° C. for over 12 hours. The fluoresces intensity of the DNA chip was read with a scanner, and the ratio relative to the fluorescence intensity resulting from the absence of chemical substance was estimated as the following, which is shown in Tables 1 to 9: […]

## [Cl][Cd][Cl] [(2), CdCl2]
Yeast gene YIL033C
  The level of expressed mRNA in the presence of chemical substance/The level of expressed mRNA in the absence of chemical substance: 1.3
Yeast gene YIR037W
  The level of expressed mRNA in the presence of chemical substance/The level of expressed mRNA in the absence of chemical substance: 2.2
Yeast gene YIR038C
  The level of expressed mRNA in the presence of chemical substance/The level of expressed mRNA in the absence of chemical substance: 3.5
Yeast gene YJL128C
  The level of expressed mRNA in the presence of chemical substance/The level of expressed mRNA in the absence of chemical substance: 1.4
Yeast gene YJL158C
  The level of expressed mRNA in the presence of chemical substance/The level of expressed mRNA in the absence of chemical substance: 0.6
Yeast gene YJL159W
  The level of expressed mRNA in the presence of chemical substance/The level of expressed mRNA in the absence of chemical substance: 1.3
Yeast gene YJL165C
  The level of expressed mRNA in the presence of chemical substance/The level of expressed mRNA in the absence of chemical substance: 0.8
Yeast gene YJR045C
  The level of expressed mRNA in the presence of chemical substance/The level of expressed mRNA in the absence of chemical substance: 1.9
Yeast gene YJR090C
  The level of expressed mRNA in the presence of chemical substance/The level of expressed mRNA in the absence of chemical substance: 1.0
Yeast gene YKL161C
  The level of expressed mRNA in the presence of chemical substance/The level of expressed mRNA in the absence of chemical substance: 0.8
Yeast gene YKL163W
  The level of expressed mRNA in the presence of chemical substance/The level of expressed mRNA in the absence of chemical substance: 1.4
Yeast gene YKL164C
  The level of expressed mRNA in the presence of chemical substance/The level of expressed mRNA in the absence of chemical substance: 1.1
Yeast gene YKL210W
  The level of expressed mRNA in the presence of chemical substance/The level of expressed mRNA in the absence of chemical substance: 1.7
Yeast gene YKR053C
  The level of expressed mRNA in the presence of chemical substance/The level of expressed mRNA in the absence of chemical substance: 2.0
Yeast gene YLL024C
  The level of expressed mRNA in the presence of chemical substance/The level of expressed mRNA in the absence of chemical substance: 1.6
Yeast gene YLL026W
  The level of expressed mRNA in the presence of chemical substance/The level of expressed mRNA in the absence of chemical substance: 2.9
Yeast gene YLL039C
  The level of expressed mRNA in the presence of chemical substance/The level of expressed mRNA in the absence of chemical substance: 1.0
Yeast gene YLL060C
  The level of expressed mRNA in the presence of chemical substance/The level of expressed mRNA in the absence of chemical substance: 4.2
Yeast gene YLR006C
  The level of expressed mRNA in the presence of chemical substance/The level of expressed mRNA in the absence of chemical substance: 0.7
Yeast gene YLR109W
  The level of expressed mRNA in the presence of chemical substance/The level of expressed mRNA in the absence of chemical substance: 2.9
Yeast gene YLR259C
  The level of expressed mRNA in the presence of chemical substance/The level of expressed mRNA in the absence of chemical substance: 1.0
Yeast gene YML007W
  The level of expressed mRNA in the presence of chemical substance/The level of expressed mRNA in the absence of chemical substance: 0.8
Yeast gene YML070W
  The level of expressed mRNA in the presence of chemical substance/The level of expressed mRNA in the absence of chemical substance: 1.7
Yeast gene YMR021C
  The level of expressed mRNA in the presence of chemical substance/The level of expressed mRNA in the absence of chemical substance: 0.7
Yeast gene YMR173W
  The level of expressed mRNA in the presence of chemical substance/The level of expressed mRNA in the absence of chemical substance: 3.6
Yeast gene YMR186W
  The level of expressed mRNA in the presence of chemical substance/The level of expressed mRNA in the absence of chemical substance: 1.4
Yeast gene YNL064C
  The level of expressed mRNA in the presence of chemical substance/The level of expressed mRNA in the absence of chemical substance: 1.8
Yeast gene YNL160W
  The level of expressed mRNA in the presence of chemical substance/The level of expressed mRNA in the absence of chemical substance: 3.7
Yeast gene YNL241C
  The level of expressed mRNA in the presence of chemical substance/The level of expressed mRNA in the absence of chemical substance: 2.5
Yeast gene YNR076W
  The level of expressed mRNA in the presence of chemical substance/The level of expressed mRNA in the absence of chemical substance: 1.3
Yeast gene YOL064C
  The level of expressed mRNA in the presence of chemical substance/The level of expressed mRNA in the absence of chemical substance: 2.1
Yeast gene YOL161C
  The level of expressed mRNA in the presence of chemical substance/The level of expressed mRNA in the absence of chemical substance: 1.1
Yeast gene YOR008C
  The level of expressed mRNA in the presence of chemical substance/The level of expressed mRNA in the absence of chemical substance: 0.8
Yeast gene YOR009W
  The level of expressed mRNA in the presence of chemical substance/The level of expressed mRNA in the absence of chemical substance: 0.8
Yeast gene YOR010C
  The level of expressed mRNA in the presence of chemical substance/The level of expressed mRNA in the absence of chemical substance: 0.7
Yeast gene YOR027W
  The level of expressed mRNA in the presence of chemical substance/The level of expressed mRNA in the absence of chemical substance: 2.4
Yeast gene YOR208W
  The level of expressed mRNA in the presence of chemical substance/The level of expressed mRNA in the absence of chemical substance: 1.0
Yeast gene YPL059W
  The level of expressed mRNA in the presence of chemical substance/The level of expressed mRNA in the absence of chemical substance: 0.9
Yeast gene YPL106C
  The level of expressed mRNA in the presence of chemical substance/The level of expressed mRNA in the absence of chemical substance: 1.7
Yeast gene YPL140C
  The level of expressed mRNA in the presence of chemical substance/The level of expressed mRNA in the absence of chemical substance: 1.3
Yeast gene YPL194W
  The level of expressed mRNA in the presence of chemical substance/The level of expressed mRNA in the absence of chemical substance: 1.4
Yeast gene YPL223C
  The level of expressed mRNA in the presence of chemical substance/The level of expressed mRNA in the absence of chemical substance: 20.0
Yeast gene YPL240C
  The level of expressed mRNA in the presence of chemical substance/The level of expressed mRNA in the absence of chemical substance: 1.4
Yeast gene YPR005C
  The level of expressed mRNA in the presence of chemical substance/The level of expressed mRNA in the absence of chemical substance: 0.8
Yeast gene YPR026W
  The level of expressed mRNA in the presence of chemical substance/The level of expressed mRNA in the absence of chemical substance: 1.2
